Publication PMC6198068, “Discovery of a Novel Nav1.7 Inhibitor From Cyriopagopus albostriatus Venom With Potent Analgesic Efficacy” (Frontiers in Pharmacology, 2018)
Where a SMILES comes first, the peptide text is derived from it. Bridges are numbered along the chain shown (N, C = ends).

Legend:
Format in all cases: cell-based
Nav1.7/D816N = biological target: T1, Nav1.7/D816N (Homo sapiens, UniProt Q15858, D827N); assay: Fast inactivation kinetics in Nav1.7/D816N channel; conditions: 0.2 µM; between -10 mV and +10 mV; n = 7
T1 construct: expressed in transfected cells; host or cells: HEK293T
T1 sequence (O60939 30-215): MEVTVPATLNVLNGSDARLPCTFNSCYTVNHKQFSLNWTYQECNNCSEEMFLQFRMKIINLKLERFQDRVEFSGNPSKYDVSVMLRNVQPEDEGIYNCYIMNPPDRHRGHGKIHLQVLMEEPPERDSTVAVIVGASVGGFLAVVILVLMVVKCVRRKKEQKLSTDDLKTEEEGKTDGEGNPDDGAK
T1 sequence (Q07699 19-218, further chain): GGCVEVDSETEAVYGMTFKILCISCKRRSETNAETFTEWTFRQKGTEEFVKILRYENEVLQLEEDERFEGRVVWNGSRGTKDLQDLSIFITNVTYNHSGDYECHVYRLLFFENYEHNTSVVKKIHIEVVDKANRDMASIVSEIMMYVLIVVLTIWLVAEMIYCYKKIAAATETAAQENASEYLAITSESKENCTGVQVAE
T1 sequence (Q15858 other isoform, or with tags, fused parts or gaps D816N): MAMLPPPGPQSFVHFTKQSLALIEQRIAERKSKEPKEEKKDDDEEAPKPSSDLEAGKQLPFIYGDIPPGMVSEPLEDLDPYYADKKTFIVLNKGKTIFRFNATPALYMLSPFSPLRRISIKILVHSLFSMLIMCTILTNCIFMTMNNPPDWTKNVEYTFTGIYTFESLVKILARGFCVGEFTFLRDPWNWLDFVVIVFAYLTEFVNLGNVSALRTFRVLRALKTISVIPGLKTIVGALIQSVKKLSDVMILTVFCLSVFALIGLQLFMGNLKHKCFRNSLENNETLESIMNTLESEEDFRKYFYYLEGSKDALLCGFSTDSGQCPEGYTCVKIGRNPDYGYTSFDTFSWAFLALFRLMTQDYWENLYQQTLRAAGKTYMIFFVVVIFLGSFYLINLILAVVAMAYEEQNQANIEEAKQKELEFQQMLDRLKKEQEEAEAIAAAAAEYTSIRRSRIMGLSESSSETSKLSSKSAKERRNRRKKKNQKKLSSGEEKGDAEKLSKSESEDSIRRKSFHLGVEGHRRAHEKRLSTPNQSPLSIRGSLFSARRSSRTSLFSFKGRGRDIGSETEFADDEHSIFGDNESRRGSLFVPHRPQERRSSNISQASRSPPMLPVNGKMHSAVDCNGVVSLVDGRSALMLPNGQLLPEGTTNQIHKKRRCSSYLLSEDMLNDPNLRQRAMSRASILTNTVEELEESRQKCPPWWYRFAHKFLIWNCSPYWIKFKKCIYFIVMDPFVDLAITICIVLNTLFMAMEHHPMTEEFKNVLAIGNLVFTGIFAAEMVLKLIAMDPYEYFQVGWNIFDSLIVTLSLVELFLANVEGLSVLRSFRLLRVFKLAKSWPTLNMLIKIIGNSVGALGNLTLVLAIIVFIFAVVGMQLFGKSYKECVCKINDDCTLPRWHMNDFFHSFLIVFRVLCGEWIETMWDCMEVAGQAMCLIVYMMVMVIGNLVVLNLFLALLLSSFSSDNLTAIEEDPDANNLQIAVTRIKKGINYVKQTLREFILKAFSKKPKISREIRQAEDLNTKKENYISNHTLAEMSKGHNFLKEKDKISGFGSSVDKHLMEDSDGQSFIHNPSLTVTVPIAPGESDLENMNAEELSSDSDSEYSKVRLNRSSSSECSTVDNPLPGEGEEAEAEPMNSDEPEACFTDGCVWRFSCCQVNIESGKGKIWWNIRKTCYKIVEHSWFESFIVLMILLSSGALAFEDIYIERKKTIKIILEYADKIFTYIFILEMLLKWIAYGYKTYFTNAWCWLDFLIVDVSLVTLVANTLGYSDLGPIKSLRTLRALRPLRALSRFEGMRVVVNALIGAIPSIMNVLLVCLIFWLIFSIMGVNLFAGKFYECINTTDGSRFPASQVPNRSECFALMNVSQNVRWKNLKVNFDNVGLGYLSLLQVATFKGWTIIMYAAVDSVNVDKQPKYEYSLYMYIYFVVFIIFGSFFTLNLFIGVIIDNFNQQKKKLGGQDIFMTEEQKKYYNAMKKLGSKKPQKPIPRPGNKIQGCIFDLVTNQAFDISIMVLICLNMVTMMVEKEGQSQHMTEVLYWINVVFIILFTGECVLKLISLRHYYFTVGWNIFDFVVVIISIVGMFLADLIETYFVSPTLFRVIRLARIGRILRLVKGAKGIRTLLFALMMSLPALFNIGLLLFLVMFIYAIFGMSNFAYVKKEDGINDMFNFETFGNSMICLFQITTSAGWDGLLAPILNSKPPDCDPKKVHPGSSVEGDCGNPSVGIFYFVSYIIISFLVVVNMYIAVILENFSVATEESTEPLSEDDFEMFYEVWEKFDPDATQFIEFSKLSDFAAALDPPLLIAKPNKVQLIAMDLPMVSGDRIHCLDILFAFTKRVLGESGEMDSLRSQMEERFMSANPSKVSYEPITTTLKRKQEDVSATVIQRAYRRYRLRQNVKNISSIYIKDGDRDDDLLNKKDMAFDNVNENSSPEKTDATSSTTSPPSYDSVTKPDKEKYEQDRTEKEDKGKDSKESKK
Source text: (§1) The cDNA genes encoding rat Nav1.4 and human Nav1.7 were subcloned into vectors pRGB4 and pcDNA3.1-mod, respectively. Mutations of rNav1.4 (N655D, Q657E, and N655D/Q657E) and hNav1.7 (D816N, E818Q, and D816N/E818Q) were constructed using the Gene Tailor Site-Directed Mutagenesis system (Invitrogen, Carlsbad, CA, United States), according to the manufacturer’s instructions. Nav1.2–Nav1.7 and mutant plasmids together with eGFP were transiently transfected into HEK293T cells while Nav1.8 together with eGFP was transiently transfected into ND7/23 cells by Lipofectamine 2000 (Invitrogen, Carlsbad, CA, United States). […] Cells with green fluorescent protein fluorescence were selected for whole-cell patch-clamp recordings 24 h after transfection.
(§2) Whole-cell patch-clamp recordings were performed at room temperature (20–25°C) using an EPC 10 USB Patch Clamp Amplifier (HEKA, Elektronik, Lambrecht, Germany). […] Data was analyzed by software Igo Pro 6.10A (WaveMetrics, Lake Oswego, OR, United States), SigmaPlot 10.0 (Sigma-Aldrich, St. Louis, MO, United States), OriginPro 8 (OriginLab Corp., Northampton, MA, United States), and GraphPad Prism 5 (GraphPad Software, San Diego, CA, United States). […]
Fast inactivation time constants were calculated by fitting current decay traces with a single exponential function using the I–V protocol described above. […]

WT Nav1.7 = biological target: T2, WT Nav1.7 (Homo sapiens, UniProt Q15858); assay: Time course of Nav1.7 inhibition and recovery upon washing; conditions: 1 μM, n = 4
T2 construct: expressed in transfected cells; host or cells: HEK293T
T2 sequence (Q07699 19-218): as the sequence (Q07699 19-218, further chain) above
T2 sequence (Q15858 other isoform, or with tags, fused parts or gaps): as the sequence (Q15858 other isoform, or with tags, fused parts or gaps D816N) above, with N816D counted along it
T2 sequence (O60939 30-215, further chain): as the sequence (O60939 30-215) above
Source text: as §1, with “States). Additionally, plasmids β1- and β2-eGFP encoding the human β1 and β2 subunits, respectively, were co-transfected with those encoding WT Nav1.7 and Nav1.7 mutations in HEK293T cells.” for “States).”
as §2

hNav1.7 = biological target: T3, hNav1.7 (Homo sapiens, UniProt Q15858); assay: Whole-cell patch-clamp, WT Nav1.7 in HEK293T cells; conditions: mean ± SEM
T3 construct: expressed in transfected cells; host or cells: HEK293T
T3 sequence (O60939 30-215): as above
T3 sequence (Q15858 other isoform, or with tags, fused parts or gaps): as the sequence (Q15858 other isoform, or with tags, fused parts or gaps D816N) above, with N816D counted along it
T3 sequence (Q07699 19-218, further chain): as the sequence (Q07699 19-218, further chain) above
Source text: as §1, with “States). Additionally, plasmids β1- and β2-eGFP encoding the human β1 and β2 subunits, respectively, were co-transfected with those encoding WT Nav1.7 and Nav1.7 mutations in HEK293T cells. Human Nav1.9 was transfected into ND7/23 cells according to a previous report ([Zhou et al., 2017]).” for “States).”
as §2
Concentration-response curves were fitted using the following Hill logistic equation: y = fmax − (fmax − fmin)/(1 + (x/IC50)^n), where fmax and fmin, respectively, represent the channel’s maximum and minimum responses to toxins, fmin was set to 0, x represents toxin concentration and n is an empirical Hill coefficient. […] Peak inward currents from steady-state inactivation were normalized by the maximum current amplitude and fit with a Boltzmann equation I = Imin + 1/(1 + exp[Vm − V1/2/k]) where I is the current amplitude measured during the test depolarization, V1/2 is the midpoint of inaction, and k is the slope factor. […]

Compound: CC(C)C[C@H](NC(=O)[C@H](CC(=O)O)NC(=O)[C@H](Cc1ccc(O)cc1)NC(=O)[C@H](CCCCN)NC(=O)[C@@H]1CSSC[C@@H]2NC(=O)[C@H](CCCCN)NC(=O)[C@H](CC(=O)O)NC(=O)[C@H](CC(N)=O)NC(=O)[C@H](CO)NC(=O)[C@@H]3CCCN3C(=O)[C@H](CC(N)=O)NC(=O)[C@@H]3CSSC[C@H](NC(=O)[C@H](C(C)C)NC(=O)[C@H](CC(C)C)NC(=O)[C@H](CO)NC(=O)[C@H](CO)NC(=O)[C@H](CO)NC(=O)[C@H](CCCCN)NC(=O)[C@H](CSSC[C@H](NC(=O)[C@H](C)N)C(=O)N[C@@H](CC(C)C)C(=O)NCC(=O)N[C@@H](Cc4ccccc4)C(=O)NCC(=O)N[C@@H](CCC(=O)O)C(=O)N[C@@H](CCCCN)C(=O)N3)NC2=O)C(=O)N[C@@H](CO)C(=O)N[C@@H](CCC(N)=O)C(=O)N[C@@H](CCCCN)C(=O)N[C@@H](Cc2c[nH]cn2)C(=O)N[C@@H](CCCCN)C(=O)N[C@@H](Cc2c[nH]c3ccccc23)C(=O)N1)C(=O)O [Ca2a] (H-ACLGFGEKCNPSNDKCCKSSSLVCSQKHKWCKYDL-OH; disulfide 2-17, 9-24, 16-31 (inferred); N-terminus and C-terminus assumed)
- inactivation time constant of Nav1.7/D816N (Nav1.7/D816N): did not alter inactivation time constant
- τoff, WT Nav1.7 (WT Nav1.7; recovery upon washing with bath solution): 295.6 ± 27.5 s
- τon, WT Nav1.7 (WT Nav1.7): 18.0 ± 2.5 s
- inhibition at 0.2 µM (hNav1.7; HEK-293T, 0.2 μM, read-out: inhibition of Nav1.7 current): 64.5 ± 2.1%
- inhibition at 1 µM (hNav1.7; HEK-293T, 1 μM, 50 ms depolarization to −10 mV from −100 mV, room temperature, read-out: inhibition on Nav1.7 currents): 87.3 ± 4.4%
- IC50 (hNav1.7; whole-cell patch-clamp, 50 ms to −10 mV from −100 mV, n = 4–7 cells per data point): 98.1 ± 3.3 nM
